Data on four compounds can be found in paper PMC2745359, “Engineering and validation of a novel lipid thin film for biomembrane modeling in lipophilicity determination of drugs and xenobiotics” (Journal of Biological Engineering, 2009).

The conditions of data set [1]: ref 31 (ADBA), 32 (NPX), 33 (NBT), 34 (HF); cited from earlier work.
Data set [2] can be described thus: RPTLC lipophilicity determination on silica-supported leucaena oil (LO) lipid film. An excerpt: (§1) Liquid paraffin in n-hexane (5% w/v) was used as coating solution of silica gel support, to produce the layer which was taken as benchmark. Thin film of liquid paraffin was placed on the silica surface by ascending development of the TLC plates in the coating solution and allowing the plates to air dry afterwards.
(§2) The optimal film thickness was designed by testing the alternative films against array of LP benchmark requirements and constraint. Using nabumetone as model compound and varying the concentration of organic modifier (methanol) in the mobile phase, a plot of linear regression of Rm against methanol fraction was made for LP and all alternative LO layers. Rm was obtained from the expression [drawing 1] where Rf is the chromatographic retardation factor [5]. Retention behavior of nabumetone on LP was compared with its behavior on the alternative LO layers by statistical comparison of the slope (S, specific hydrophobic surface area) and y-intercept, (Rmw, basic lipophilicity parameter) of the regression plot of Rm versus methanol fraction. The retention behavior is described by the regression equation: Rm = Sφ + Rmw (where φ is the methanol fraction). Plate development cycle time for a specific methanol fraction (0.5) was set as design constraint. This was compared by recording the time required for the mobile phase (50% methanol) to traverse 7 cm path length of the various silica-supported layers.
(§3) The engineered lipid film was validated by comparing its performance with the prior art; liquid paraffin film and octadecysilane (ODS) bonded phase, which was selected as reference.
(§4) The computational model employed is a transformation of the planar chromatographic retardation factor Rf according to the following equation: […]
(§5) Linear regression of the Rm values against the fraction of methanol organic modifier in the mobile phase was performed according to the equation: […]
(§6) S, is the specific hydrophobic surface area, while Rmw is the basic lipophilicity parameter calculated from the chromatographic data. The ultimate derived lipophilicity parameter of interest is the isocratic chromatographic hydrophobicity index (φo), which signifies the methanol fraction that will produce half-maximum solute migration on the chromatogram for each compound. […] Derived lipophilicity parameter (φo) values were correlated with Log P and several ChemSketch calculated molecular descriptors to provide quantitative structure property relationships (QSPR) as previously described.

A short description of data set [3]: RPTLC lipophilicity determination on octadecylsilane (ODS) bonded layer. As to conditions: for S (specific hydrophobic surface area): slope of Rm vs methanol fraction; for φo (isocratic chromatographic hydrophobicity index): φo = -Rmw/S, methanol modifier. How it is done: as §3, §4, §5, §6
Data set [4] is described as follows: RPTLC lipophilicity determination on liquid paraffin (LP) film. The note with it: 5% LP film; for S (specific hydrophobic surface area): slope of Rm vs methanol fraction; for Rmw (basic lipophilicity parameter): y-intercept of Rm vs methanol fraction; for φo (isocratic chromatographic hydrophobicity index): φo = -Rmw/S, methanol modifier.
Description: as §1, §2, §3, §4, §5, §6

On the set-up of data set [5]: method as in PMID 17767395. The note with it: clinical use; cited from earlier work.
The mark [6] stands for this setting: 3.75% LO film, slope of Rm vs methanol fraction.
Setting [7] is: 3.75% LO film, y-intercept of Rm vs methanol fraction.
Setting [8] is: 3.75% LO film, φo = -Rmw/S, methanol modifier.
Setting [9] is: ODS layer, y-intercept of Rm vs methanol fraction.

As for `COc1ccc2cc(CCC(C)=O)ccc2c1` [Nabumetone, nabumetone], the “Log P (octanol/water)” value in data set [1] is listed as 3.27. Besides, the “Rmw (basic lipophilicity parameter)” value in data set [2] (1.25% LO film) is recorded as 1.05; in data set [2] (2.5% LO film), 1.94; in data set [2] (setting [7]), 2.58; in data set [2] (5% LO film), 3.48; in data set [3], 2.77; in data set [4], 2.43. Further, the “S (specific hydrophobic surface area)” value is reported as -2.33 in data set [2] (1.25% LO film); -3.14 in data set [2] (2.5% LO film); -3.95 in data set [2] (setting [6]); -4.67 in data set [2] (5% LO film); -3.13 in data set [3] (ODS layer); -3.48 in data set [4]. Further, the “φo (isocratic chromatographic hydrophobicity index)” value in data set [2] (1.25% LO film) stood at 0.45; in data set [2] (2.5% LO film) it was 0.62; in data set [2] (setting [8]), 0.66; in data set [2] (5% LO film), 0.75; in data set [3] (ODS layer), 0.89; in data set [4], 0.70.
As to `CCCCN(CCCC)CCC(O)c1cc2c(Cl)cc(Cl)cc2c2cc(C(F)(F)F)ccc12` (stereo not drawn) [Halofantrine, halofantrine], in data set [1], the “Log P (octanol/water)” value is recorded as 3.25. The figures for the “S (specific hydrophobic surface area)” value in data set [2] (setting [6]), in data set [3] (ODS layer) and in data set [4] were -8.13, -4.55 and -6.54, respectively. The “Rmw (basic lipophilicity parameter)” value in data set [2] (setting [7]) was 8.40; in data set [3] (setting [9]), 4.94; in data set [4] it was 6.76. For the same compound, the “φo (isocratic chromatographic hydrophobicity index)” value in data set [2] (setting [8]) is reported as 1.03; in data set [3] (ODS layer), 1.09; in data set [4], 1.03.
With `Nc1c([N+](=O)[O-])cc(C(=O)O)cc1[N+](=O)[O-]` [ADBA, 4-amino-3,5-dinitrobenzoic acid], the “Log P (octanol/water)” value in data set [1] is -1.50. Also, the “S (specific hydrophobic surface area)” value is listed as -8.84 in data set [2] (setting [6]), -1.41 in data set [3] (ODS layer) and -5.99 in data set [4]. For the same compound, the “Rmw (basic lipophilicity parameter)” value in data set [2] (setting [7]) is given as -0.646; in data set [3] (setting [9]), -0.102. The “φo (isocratic chromatographic hydrophobicity index)” value is -0.073 in data set [2] (setting [8]), -0.073 in data set [3] (ODS layer) and -0.081 in data set [4].
As to `CC(C)(C)c1ccc(C(O)CCCN2CCC(C(O)(c3ccccc3)c3ccccc3)CC2)cc1` (stereo not drawn) [Terfenadine, terfenadine], in data set [5], the “Cardiotoxicity (QT prolongation)” value was “withdrawn from clinical use because of cardiotoxicity”.
